Assay results published in BigSolDB 2.1.

CCCCCCCCCCCCCCCCCCCCCCCCCCCCO
solubility (mole fraction)
Details	298.2 K	303.2 K	308.2 K	313.2 K	318.2 K	323.2 K	328.2 K	333.2 K
in n-hexanol	0.000906	0.00126	0.00238	0.00436	0.00758	0.0148	0.0291	0.0602
in n-pentanol	0.000644	0.00115	0.00222	0.00375	0.00658	0.013	0.026	–
in toluene	0.0014	0.00246	0.00402	0.00744	0.0137	0.0291	0.0588	–
